{"source": "patent US20190191695A1", "about": "“DISSOLVENT COMPOSITION, STABLE UNDER COLD CONDITIONS” (OLEON NV, priority 2016, published 2019)", "format_in_all_cases": "physicochemical", "key": {"[1]": {"assay": "Viscosity (viscometer/densimeter SVM 3000)", "method": "(§1) The equipment used is: • 15 mL flasks • A refrigerated cabinet at 0° C. (Panasonic—MR-154-PE) • 3 mL pipettes • An analytical balance (OHAUS Adventurer Pro AV264C) • A watch glass • A spatula • A tensiometer, brand name K100, sold by KRÜSS GmbH, Borsteler Chaussee 85, 22453 Hamburg, Germany. • A 70 mL crystallizing dish • A platinum blade • KRUSS laboratory software • A viscometer/densimeter SVM 3000—Anton Paar\n(§2) The compositions of formulae 19 to 23 and the dispersants of the prior art are tested for surface tension in order to find the wettability thereof, by using a fine plate (called a Wilhelmy plate) connected to an analytical balance. The method of the Wilhelmy blade on the K100 is used. A 70 mL crystallizing dish filled with 30 mL of product to be tested is placed in the K100. The platinum blade is arranged over the product. The KRUSS Laboratory software determines the surface tension of the liquid, via the force felt by the blade in the liquid. The viscosity and the density are also measured."}, "[2]": {"assay": "Surface tension, Wilhelmy blade method on the K100 tensiometer", "method": "as §1, §2"}, "[3]": {"assay": "Density (viscometer/densimeter SVM 3000)", "method": "as §1, §2"}}, "data": [{"smiles": "CN1CCCC1=O", "note": "[NMP, N-methyl-2-pyrrolidone]", "values": [{"measurement": "Viscosity at 20° C.", "setting": "[1]", "value": 1.7, "unit": "mm^2/s"}, {"measurement": "Surface tension at 20° C.", "setting": "[2]", "value": 40, "unit": "mN/m"}, {"measurement": "Density at 20° C.", "setting": "[3]", "value": 1.03, "unit": "g/mL"}]}]}
